Experimental data published in patent publication US20240300987A1, “TRAP1 INHIBITOR AND USE THEREOF” (SMARTIN BIO INC., priority 2021, published 2024).

Legend:
[1] = target: T1, human full-length TRAP1 protein (Homo sapiens, UniProt Q12931); assay: Fluorescence polarization (FP) analysis using SB-TM2 probe (client-binding site); conditions: for IC50: FP analysis using SB-TM2; for Activity compared to that of SMX: TRAP1 binding, relative to SMX of the same table
T1 construct: containing human full-length TRAP1 protein (400 nM); hexahistidine tag followed by TEV protease cleavage site (N, cleaved yes); made in house; host or cells: E. coli BL21 (DE3)
T1 sequence (Q12931 60-704): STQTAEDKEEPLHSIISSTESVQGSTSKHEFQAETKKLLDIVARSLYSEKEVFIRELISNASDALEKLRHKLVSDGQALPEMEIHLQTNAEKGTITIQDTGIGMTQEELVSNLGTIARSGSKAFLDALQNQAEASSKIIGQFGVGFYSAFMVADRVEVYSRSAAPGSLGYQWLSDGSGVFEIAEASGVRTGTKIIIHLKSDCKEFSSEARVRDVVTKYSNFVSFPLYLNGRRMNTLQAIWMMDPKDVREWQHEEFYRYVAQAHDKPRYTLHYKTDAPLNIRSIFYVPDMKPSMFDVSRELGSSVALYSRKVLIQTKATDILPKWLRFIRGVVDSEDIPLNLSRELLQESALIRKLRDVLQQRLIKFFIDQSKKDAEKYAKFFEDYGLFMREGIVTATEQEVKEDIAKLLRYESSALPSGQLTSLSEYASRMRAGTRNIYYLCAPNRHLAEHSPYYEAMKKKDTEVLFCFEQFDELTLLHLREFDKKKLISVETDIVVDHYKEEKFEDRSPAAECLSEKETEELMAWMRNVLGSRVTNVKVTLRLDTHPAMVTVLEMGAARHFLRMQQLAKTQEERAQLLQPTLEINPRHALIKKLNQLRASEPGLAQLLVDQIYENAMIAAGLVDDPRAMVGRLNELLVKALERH
Experimental: The substance to be analyzed (at a final volume of 100 μL) was added to FP buffer ([…], 2.7 mM KCl, 4.3 mM Na2HPO4, 1.4 mM KH2PO4 (pH 7.3), 1 mM DTT, 2 mM MgCl2, and 0.1 mg/mL BSA) containing human full-length TRAP1 protein (400 nM) and SB-TM2 probe (100 nM) and then reacted at room temperature for 1 hour (96-well plate). Using a SYNERGY NEO microplate reader, FP was measured at an excitation wavelength set to 440 nm and an emission wavelength set to 500 nm.

HIF1α = assay: Drug activity assay using MIO-M1 HRE/GFP cell line under hypoxia; format: cell-based; conditions: for IC50: HIF1α inhibitory activity in MIO-M1 cells, 1% O2 24 hours; for Activity compared to that of SMX: HIF1α inhibition, relative to SMX of the same table
Experimental: After transfection (jetPRIME kit) of MIO-M1 Müller cells with 5HRE/GFP plasmid (Addgene, #46926), the cells transfected with the plasmid were selected using 1 mg/ml of G418 (Neomycin), a selectable marker. A stable cell line was constructed by selecting cells, growing in a colony form, from single cells. The prepared MIO-M1-HRE/GFP stable cell line was dispensed into a 96-well plate and treated with drugs at different concentrations the next day. After being exposed to a hypoxic environment (1% O2) for 24 hours, the GFP (Ex/Em: 488/507) fluorescence signal was measured using a SYNERGY NEO microplate reader (BioTek Instrument). The relative fluorescence value was calculated on the basis of 100% of the negative control group.

TRAP1 = target: T2, TRAP1 (Homo sapiens, UniProt Q12931); assay: ATPase activity assay (PiColorLock Gold Phosphate Detection Kit); format: biochemical; set-up: hexahistidine tag followed by TEV protease cleavage site (N, cleaved yes); made in house; host or cells: E. coli BL21 (DE3); conditions: result in words
T2 sequence (Q12931 60-704): T1 sequence (Q12931 60-704)
Experimental: The ATPase activity of TRAP1 was measured using the PiColorLock Gold Phosphate Detection Kit (Abcam). Then, 0.5 µM TRAP1 (wild-type or mutation) was pre-incubated along with inhibitors at various concentrations for 30 minutes and then incubated with 0.2 mM ATP at 37° C. for 3 hours in ATPase activity assay buffer containing 50 mM Tris-HCl, 20 mM KCl, and 6 mM MgCl (pH 7.4). Next, 20 µL of a mixture of a PiColorLock Gold reagent and an accelerator (100:1) was added to each sample (100 μL). After 5 minutes of incubation, 10 μL of a stabilizer was added to stop color development. Absorbance was measured at 620 nm using a microplate reader (Synergy NEO, BioTek). The background signal was normalized by subtracting the absorbance of unreacted samples.

[2] = Table 3, other synthetic compounds
[3] = MIO-M1, 24 h, Table 8, other synthetic compounds
[4] = MIO-M1, 24 h, Table 6, alkyl-TPPs
[5] = Table 2, antioxidant-TPP conjugates
[6] = MIO-M1, 24 h, Table 7, TPP-antioxidant conjugates
[7] = MIO-M1, 24 h, Table 9, other synthetic compounds
[8] = Table 4, other synthetic compounds

Compound | IC50 [1, 2] [nM] | IC50 ([1]; Table 1, alkyl-TPPs) [nM] | Activity compared to that of SMX ([1]; Table 1) | IC50 (HIF1α; [4]) [nM] | IC50 (HIF1α; [7]) [nM] | Activity compared to that of SMX (HIF1α; Table 8) | Activity compared to that of SMX (HIF1α; Table 6) | Activity compared to that of SMX (HIF1α; Table 9) | other results
COc1c(Br)c(C)c(CCCCCCCCCC[P+](c2ccccc2)(c2ccccc2)c2ccccc2)c(OC)c1OC [SB-U005, (10-(3-Bromo-4,5,6-trimethoxy-2-methylphenyl)decyl)triphenylphosphonium] | 385 ± 83.5 | – | – | – | – | 3.92 | – | – | IC50 (HIF1α; [3]): 131 ± 9.1 nM
COc1c(C)c(CCCCCCCCCC[P+](c2ccccc2)(c2ccccc2)c2ccccc2)c(Br)c(OC)c1OC [SB-U012, (10-(2-Bromo-3,4,5-trimethoxy-6-methylphenyl)decyl)triphenylphosphonium] | 601 ± 90.6 | – | – | – | – | 2.90 | – | – | Activity compared to that of SMX ([1]; Table 3): 1.315; IC50 (HIF1α; [3]): 177 ± 8.8 nM
CC1=C(C)C(=O)C(CCCCCCCCCC[P+](c2ccccc2)(c2ccccc2)c2ccccc2)=CC1=O [SkQ1, (10-(4,5-Dimethyl-3,6-dioxocyclohexa-1,4-diene-1-yl)decyl)triphenylphosphonium, reference compound] | – | – | – | – | – | – | – | – | IC50 [1, 5]: 696 ± 55.4 nM; IC50 (HIF1α; [6]): 183 ± 9.1 nM; Activity compared to that of SMX (HIF1α; Table 7): 1.79
c1ccc([P+](CCCCCCCCCCC2CCCCC2)(c2ccccc2)c2ccccc2)cc1 [SB-B002, (10-Cyclohexyldecyl)triphenylphosphonium chloride] | – | – | – | – | 22.3 ± 1 | – | – | 12.51 | –
COC1=C(OC)C(=O)C(CCCCCCCCCC[P+](c2ccccc2)(c2ccccc2)c2ccccc2)=C(C)C1=O [SMX, (10-(4,5-Dimethoxy-2-methyl-3,6-dioxocyclohexadien-1-yl)decyl)triphenylphosphonium, reference compound] | 791 ± 51.2 | 623 ± 37.5 | 1 | 468 ± 15.1 | 279 ± 17 | 1 | 1 | 1 | IC50 [1, 5]: 824 ± 51.2 nM; Activity compared to that of SMX ([1]; Table 2): 1; Activity compared to that of SMX ([1]; Table 3): 1; IC50 [1, 8]: 406 ± 38.9 nM; Activity compared to that of SMX ([1]; Table 4): 1; IC50 (HIF1α; [6]): 327 ± 22.9 nM; IC50 (HIF1α; [3]): 514 ± 55.2 nM; Activity compared to that of SMX (HIF1α; Table 7): 1
COc1c(O)c(C)c(CCCCCCCCCC[P+](c2ccccc2)(c2ccccc2)c2ccccc2)c(Br)c1OC [SB-U009, (10-(2-Bromo-5-hydroxy-3,4-dimethoxy-6-methylphenyl)decyl)triphenylphosphonium] | 909 ± 136 | – | – | – | – | 2.69 | – | – | Activity compared to that of SMX ([1]; Table 3): 0.8701; IC50 (HIF1α; [3]): 191 ± 23.6 nM
c1ccc(CCCCCCCCCC[P+](c2ccccc2)(c2ccccc2)c2ccccc2)cc1 [SB-B001, Triphenyl(10-phenyldecyl)phosphonium] | – | – | – | – | 94.7 ± 13.2 | – | – | 2.95 | IC50 [1, 8]: 2970 ± 1050 nM; Activity compared to that of SMX ([1]; Table 4): 0.14
COc1c(C)c(CCCCCCCCCC[P+](c2ccccc2)(c2ccccc2)c2ccccc2)c(OC)c(OC)c1OC [SB-U014, Triphenyl(10-(2,3,4,5-tetramethoxy-6-methylphenyl)decyl)phosphonium] | – | – | – | – | 69.4 ± 3.1 | – | – | 4.02 | IC50 [1, 8]: 805 ± 99.4 nM
CC1(C)CC(NC(=O)C[P+](c2ccccc2)(c2ccccc2)c2ccccc2)CC(C)(C)N1[O] [Mito-TEMPO, reference compound] | – | – | – | – | – | – | – | – | TRAP1 binding capacity (competitive binding with SB-TM2, CBS of TRAP1) ([1]; result in words): do not exhibit TRAP1 binding capacity
COc1c(Br)c(C)c(CCCCCCCCCC[P+](c2ccccc2)(c2ccccc2)c2ccccc2)c(OC)c1OC [SB-U011, (10-(3-Bromo-4,5,6-trimethoxy-2-methylphenyl)decyl)triphenylphosphonium] | 684 ± 72.9 | – | – | – | – | 6.02 | – | – | Activity compared to that of SMX ([1]; Table 3): 1.156; IC50 (HIF1α; Table 8, other synthetic compounds): 85.3 ± 8.8 nM; TRAP1 ATPase activity with increasing concentration (TRAP1): did not show a tendency that the ATPase activity decreased in a concentration-dependent manner
CC1=C(CCCCCCCCCC[P+](c2ccccc2)(c2ccccc2)c2ccccc2)C(=O)c2ccccc2C1=O [SB-K001, (10-(3-Methyl-1,4-dioxo-1,4-dihydronaphthalen-2-yl)decyl)triphenylphosphonium] | – | – | – | – | 55.5 ± 3.3 | – | – | 5.03 | IC50 [1, 8]: 166 ± 23 nM; Activity compared to that of SMX ([1]; Table 4): 2.45
CC(C)NCCCn1c(Sc2cc3c(cc2I)OCO3)nc2c(N)ncnc21 [PU-H71, reference compound] | – | – | – | – | – | – | – | – | TRAP1 ATPase activity with increasing concentration (TRAP1): ATPase activity decreased with the increasing concentration

Now from value to compound, other results behind:

IC50 [1, 2] [nM] | IC50 ([1]; Table 1, alkyl-TPPs) [nM] | Activity compared to that of SMX ([1]; Table 1) | IC50 (HIF1α; [4]) [nM] | IC50 (HIF1α; [7]) [nM] | Compound | Activity compared to that of SMX (HIF1α; Table 8) | Activity compared to that of SMX (HIF1α; Table 6) | Activity compared to that of SMX (HIF1α; Table 9) | other results
– | 18800 ± 5390 | 0.03 | 1430 | – | CCCCCC[P+](c1ccccc1)(c1ccccc1)c1ccccc1.[Br-] [TPP-6, hexyltriphenylphosphonium bromide, reference compound] | – | 0.33 | – | –
– | 377 ± 35.4 | 1.65 | 111 ± 35.4 | – | CCCCCCCCCCCC[P+](c1ccccc1)(c1ccccc1)c1ccccc1 [TPP-12, Dodecyltriphenylphosphonium] | – | 4.21 | – | binding capacity compared to that of SMX (MitoQ) ([1]; result in words): superior to that of SMX
– | 693 ± 57.8 | 0.90 | 314 ± 57.8 | – | CCCCCCCCCC[P+](c1ccccc1)(c1ccccc1)c1ccccc1 [TPP-10, Decyltriphenylphosphonium] | – | 1.49 | – | –
– | 2570 ± 258 | 0.24 | 643 ± 258 | – | CCCCCCCC[P+](c1ccccc1)(c1ccccc1)c1ccccc1 [TPP-8, Octyltriphenylphosphonium] | – | 0.73 | – | TRAP1 binding capacity (competitive binding with SB-TM2, CBS of TRAP1) ([1]; result in words): competitive binding with SB-TM2 was confirmed to be enabled; TRAP1 binding capacity (competitive binding with SB-TM2, CBS of TRAP1) ([1]; result in words, listed as octyl-TPP): competitive binding to SB-TM2 is confirmed to be enabled
